Measured values reported in patent publication US11051515B2, “3-acyl-benzamides and their use as herbicides” (Bayer Aktiengesellschaft, priority 2017, dated 2021).

Columns and labels:
MATIN [1] = experiment: Pre-emergence action against MATIN; type: in vivo, Matricaria inodora; conditions: Dosage 320 g/ha, pre-emergence
Summary of the method: (§1)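 Seeds sown in sandy loam in wood-fiber pots and covered with soil. Greenhouse growth; visual damage scored after 3 weeks versus untreated controls (100% = dead, 0% = like control).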

AVEFA [2] = experiment: Post-emergence action against AVEFA; type: in vivo, Avena fatua; conditions: post-emergence, dosage 80 g/ha, visual assessment about 3 weeks after treatment vs untreated controls
Summary of the method: (§2)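 Weeds grown in sandy loam in greenhouse, treated at one-leaf stage (2–3 weeks after sowing) with WP or EC formulations sprayed as aqueous suspension/emulsion at 600 to […] water with 0.2% wetting agent. Visual rating after about 3 weeks versus untreated controls, as % herbicidal action (100% = plants dead, 0% = like control).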

ECHCG [3] = experiment: Pre-emergence action against ECHCG; type: in vivo, Echinochloa crus-galli; conditions: pre-emergence, dosage 320 g/ha, scored visually after 3 weeks vs untreated controls
Summary of the method: as §1

VERPE [4] = experiment: Pre-emergence action against VERPE; type: in vivo, Veronica persica; conditions: Dosage 320 g/ha, pre-emergence
Summary of the method: as §1

PHBPU [5] = experiment: Post-emergence action against PHBPU; type: in vivo, Pharbitis purpurea; conditions: post-emergence, dosage 80 g/ha
Summary of the method: as §2

AMARE [6] = experiment: Pre-emergence action against AMARE; type: in vivo, Amaranthus retroflexus; conditions: pre-emergence, dosage 320 g/ha, scored visually after 3 weeks vs untreated controls
Summary of the method: as §1

STEME [7] = experiment: Post-emergence action against STEME; type: in vivo, Stellaria media; conditions: post-emergence, dosage 80 g/ha
Summary of the method: as §2

STEME [8] = experiment: Pre-emergence action against STEME; type: in vivo, Stellaria media; conditions: Dosage 320 g/ha, pre-emergence
Summary of the method: as §1

MATIN [9] = experiment: Post-emergence action against MATIN; type: in vivo, Matricaria inodora; conditions: post-emergence, dosage 80 g/ha, visual assessment about 3 weeks after treatment vs untreated controls
Summary of the method: as §2

POLCO [10] = experiment: Post-emergence action against POLCO; type: in vivo, Polygonum convolvulus; conditions: post-emergence, dosage 80 g/ha
Summary of the method: as §2

AVEFA [11] = experiment: Pre-emergence action against AVEFA; type: in vivo, Avena fatua; conditions: dosage 320 g/ha, scored visually after 3 weeks vs untreated controls
Summary of the method: as §1

ECHCG [12] = experiment: Post-emergence action against ECHCG; type: in vivo, Echinochloa crus-galli; conditions: post-emergence, dosage 80 g/ha, visual assessment about 3 weeks after treatment vs untreated controls
Summary of the method: as §2

ALOMY [13] = experiment: Post-emergence action against ALOMY; type: in vivo, Alopecurus myosuroides; conditions: Dosage 80 g/ha, post-emergence
Summary of the method: as §2

VIOTR [14] = experiment: Pre-emergence action against VIOTR; type: in vivo, Viola tricolor; conditions: Dosage 320 g/ha, pre-emergence
Summary of the method: as §1

VIOTR [15] = experiment: Post-emergence action against VIOTR; type: in vivo, Viola tricolor; conditions: post-emergence, dosage 80 g/ha
Summary of the method: as §2

VERPE [16] = experiment: Post-emergence action against VERPE; type: in vivo, Veronica persica; conditions: dosage 80 g/ha
Summary of the method: as §2

PHBPU [17] = experiment: Pre-emergence action against PHBPU; type: in vivo, Pharbitis purpurea; conditions: Dosage 320 g/ha, pre-emergence
Summary of the method: as §1

LOLMU = experiment: Pre-emergence action against LOLMU; type: in vivo, Lolium multiflorum; conditions: dosage 320 g/ha, scored visually after 3 weeks vs untreated controls
Summary of the method: as §1

SETVI [18] = experiment: Post-emergence action against SETVI; type: in vivo, Setaria viridis; conditions: post-emergence, dosage 80 g/ha, visual assessment about 3 weeks after treatment vs untreated controls
Summary of the method: as §2

ALOMY [19] = experiment: Pre-emergence action against ALOMY; type: in vivo, Alopecurus myosuroides; conditions: dosage 320 g/ha; pre-emergence; scored visually after 3 weeks vs untreated controls; 100% = plants have died, 0% = like control plants
Summary of the method: as §1

ABUTH [20] = experiment: Post-emergence action against ABUTH; type: in vivo, Abutilon theophrasti; conditions: post-emergence, dosage 80 g/ha, visual assessment about 3 weeks after treatment vs untreated controls
Summary of the method: as §2

CYPES [21] = experiment: Pre-emergence action against CYPES; type: in vivo, Cyperus esculentus; conditions: pre-emergence, dosage 320 g/ha, scored visually after 3 weeks vs untreated controls
Summary of the method: as §1

ABUTH [22] = experiment: Pre-emergence action against ABUTH; type: in vivo, Abutilon theophrasti; conditions: pre-emergence, dosage 320 g/ha, scored visually after 3 weeks vs untreated controls
Summary of the method: as §1

POLCO [23] = experiment: Pre-emergence action against POLCO; type: in vivo, Polygonum convolvulus; conditions: Dosage 320 g/ha, pre-emergence
Summary of the method: as §1

SETVI [24] = experiment: Pre-emergence action against SETVI; type: in vivo, Setaria viridis; conditions: pre-emergence, dosage 320 g/ha, scored visually after 3 weeks vs untreated controls
Summary of the method: as §1

AMARE [25] = experiment: Post-emergence action against AMARE; type: in vivo, Amaranthus retroflexus; conditions: post-emergence, dosage 80 g/ha, visual assessment about 3 weeks after treatment vs untreated controls
Summary of the method: as §2

CYPES [26] = experiment: Post-emergence action against CYPES; type: in vivo, Cyperus esculentus; conditions: post-emergence, dosage 80 g/ha, visual assessment about 3 weeks after treatment vs untreated controls
Summary of the method: as §2

Row | Structure (SMILES) | Pre-emergence action against MATIN (MATIN [1]) [%] | Pre-emergence action against ECHCG (herbicidal activity) (ECHCG [3]) [%] | Pre-emergence action against VERPE (VERPE [4]) [%] | Post-emergence action against PHBPU (PHBPU [5]) | Pre-emergence action against AMARE (herbicidal activity) (AMARE [6]) [%] | Post-emergence action against STEME (STEME [7]) | Pre-emergence action against STEME (STEME [8]) [%] | Post-emergence action against MATIN (herbicidal action in percent) (MATIN [9]) [%] | Pre-emergence action against AVEFA (herbicidal activity) (AVEFA [11]) [%] | Post-emergence action against ECHCG (herbicidal action in percent) (ECHCG [12]) [%] | Pre-emergence action against VIOTR (VIOTR [14]) [%] | Post-emergence action against VIOTR (VIOTR [15]) | Post-emergence action against VERPE (VERPE [16]) | Pre-emergence action against LOLMU (herbicidal activity) (LOLMU) [%] | Post-emergence action against SETVI (herbicidal action in percent) (SETVI [18]) [%] | Pre-emergence action against ALOMY (herbicidal activity in percent) (ALOMY [19]) [%] | Post-emergence action against ABUTH (herbicidal action in percent) (ABUTH [20]) [%] | Pre-emergence action against CYPES (herbicidal activity) (CYPES [21]) [%] | Pre-emergence action against ABUTH (herbicidal activity) (ABUTH [22]) [%] | SETVI (Table B8, pre-emergence herbicidal activity) (SETVI [24]) [%] | also measured
1 | CCn1nnnc1NC(=O)c1ccc(C(F)(F)F)c(C(=O)C2CC2)c1OC [2-50] | 100 | 100 | 100 | 100 | 100 | 100 | 100 | 100 | 100 | 100 | 100 | 100 | 90 | 100 | 100 | 100 | 90 | 100 | 100 | 100 | Post-emergence action against AVEFA (herbicidal action in percent) (AVEFA [2]): 90%; Post-emergence action against POLCO (POLCO [10]): 90; Post-emergence action against ALOMY (ALOMY [13]): 90%; Pre-emergence action against PHBPU (PHBPU [17]): 100%; Pre-emergence action against POLCO (POLCO [23]): 80%; Post-emergence action against AMARE (herbicidal action in percent) (AMARE [25]): 100%
2 | CCn1nnnc1NC(=O)c1ccc(C(F)(F)F)c(C(C)=O)c1SC [2-58] | 100 | 100 | 100 | 100 | 100 | 100 | 90 | 100 | 90 | 90 | 100 | 100 | 100 | 90 | 100 | 100 | 100 | 100 | 100 | 100 | Post-emergence action against CYPES (herbicidal action in percent) (CYPES [26]): 90%; Post-emergence action against POLCO (POLCO [10]): 90; Pre-emergence action against PHBPU (PHBPU [17]): 80%; Pre-emergence action against POLCO (POLCO [23]): 100%; Post-emergence action against AMARE (herbicidal action in percent) (AMARE [25]): 100%
3 | CCn1nnnc1NC(=O)c1ccc(SC)c(C(=O)C2CC2)c1Cl [2-123] | 100 | 100 | 100 | 100 | 100 | 100 | 100 | 100 | 80 | 100 | 100 | 100 | 100 | 90 | 100 | 100 | 100 | 90 | 100 | 100 | Post-emergence action against AVEFA (herbicidal action in percent) (AVEFA [2]): 100%; Post-emergence action against ALOMY (ALOMY [13]): 90%; Post-emergence action against AMARE (herbicidal action in percent) (AMARE [25]): 100%
